The species entered for test [1] is Homo sapiens. In words: Induction of phytohemagglutininin-activated HMNC proliferation assessed as [3H]thymidine uptake at 10 ug/mL after 3 days by lymphoproliferation test relative to control. The format is functional.
The species entered for test [2] is Homo sapiens. In words: Induction of resting HMNC proliferation assessed as [3H]thymidine uptake at 10 ug/mL after 3 days by lymphoproliferation test relative to control. In kind it is functional.
The species entered for test [3] is Homo sapiens. In words: Immunomodulatory activity in resting HMNC assessed as IFN-gamma production at 10 ug/mL after 3 days by EIA realtive to control. In kind it is functional.
The species entered for test [4] is Homo sapiens. In words: Immunomodulatory activity in phytochemagglutininin-stimulatedHMNC assessed as IFN-gamma production at 10 ug/mL after 3 days by EIA realtive to control. In kind it is functional.
A short description of test [5]: Induction of resting HMNC proliferation assessed as [3H]thymidine uptake after 3 days by lymphoproliferation test. The format is functional, Homo sapiens.
The nature of test [6]: Induction of phytohemagglutininin-activated HMNC proliferation assessed as [3H]thymidine uptake after 3 days by lymphoproliferation test. The format is functional, Homo sapiens.
The species named for test [7] is Homo sapiens. In words: (§1) Immunomodulatory activity in phytochemagglutininin-stimulatedHMNC assessed as IFN-gamma production after 3 days by EIA. The format is functional.
Test [8] is described as follows: as §1. The format is functional, Homo sapiens.
Test [9] is filed under the species Homo sapiens. Kind of test: (§2) Immunomodulatory activity in resting HMNC assessed as IFN-gamma production after 3 days by EIA. The format is functional.
The nature of test [10]: as §2. In kind it is functional, Homo sapiens.

SMILES strings stand for the structures. ≈ marks a conversion by molar mass, not a printed value. Calls of active or inactive are those of the source. The rule behind the calls is not given here.

As to `O=C(/C=C/c1ccc(O)c(O)c1)O[C@@H]1[C@@H](OC(=O)/C=C/c2ccc(O)c(O)c2)C[C@@](O)(C(=O)O)C[C@@H]1O`, the result in [1] and in test [2] was inactive.

Take `O=C(/C=C/c1ccc(O)c(O)c1)O[C@@H]1C[C@](O)(C(=O)O)C[C@@H](OC(=O)/C=C/c2ccc(O)c(O)c2)[C@H]1O`: the result in [1] and in [2] was inactive.

Regarding `O=C(O)/C=C/c1ccc(O)c(O)c1`, the outcome in test [1], in test [2], in test [3] and in [4] was inactive.

Consider `O=C(/C=C/c1ccc(O)c(O)c1)O[C@H]1[C@@H](OC(=O)/C=C/c2ccc(O)c(O)c2)C[C@](O)(C(=O)O)C[C@@H]1O`, for which the Activity in test [1] is 78.4%; in [2], 726 cpm; in [3], 30.5 pg/mL; in [7], “Dose-dependent effect”; in [9], “Dose-dependent effect”. Moreover, the concentration giving a half-maximal response (EC50) in test [5] came to 4.4 µg/mL (≈ 8.52 µM); in test [6], 8.1 µg/mL (≈ 15.7 µM); in test [8], 5 µg/mL (≈ 9.68 µM); in [10] it was 1.25 µg/mL (≈ 2.42 µM). Further, the outcome in test [4] was Active.

As for `C[C@@H]1O[C@@H](OC[C@H]2O[C@@H](Oc3c(-c4ccc(O)c(O)c4)oc4cc(O)cc(O)c4c3=O)[C@H](O)[C@@H](O)[C@@H]2O)[C@H](O)[C@H](O)[C@H]1O`, the outcome in [1] and in [2] was inactive.

In the case of `O=C(/C=C/c1ccc(O)c(O)c1)O[C@@H]1C[C@](O)(C(=O)O)C[C@@H](O)[C@H]1O` [CHLOROGENIC ACID], the Activity in [1] is 97.9%; in test [2] it was 910 cpm; in test [3], 38.5 pg/mL; in test [7] it was “Dose-dependent effect”; in test [9] it was “Dose-dependent effect”. For the same compound, the EC50 in [5] came out at 1.54 µg/mL (≈ 4.35 µM); in test [6], 4.9 µg/mL (≈ 13.8 µM); in test [8], 2.8 µg/mL (≈ 7.9 µM); in test [10], 3.9 µg/mL (≈ 11 µM). Also, the outcome in [4] was Active.

As for `COC(=O)[C@]1(O)C[C@H](OC(=O)/C=C/c2ccc(O)c(O)c2)[C@@H](O)[C@@H](OC(=O)/C=C/c2ccc(O)c(O)c2)C1`, the result in [1] and in [2] was inactive.

With `CCOC(=O)[C@]1(O)C[C@H](OC(=O)/C=C/c2ccc(O)c(O)c2)[C@@H](OC(=O)/C=C/c2ccc(O)c(O)c2)[C@@H](O)C1`, the outcome in [1] and in test [2] was inactive.

Usually EC50 stands for the midpoint of the concentration-response curve.
